# Measured values from patent US11203574B2 (BioCryst Pharmaceuticals, Inc., priority 2014, dated 2021).
# Target: human plasma kallikrein (Homo sapiens (Human), UniProt P03952)
# Assay: Plasma kallikrein activity assay (chromogenic substrate S2302)
# Assay type: biochemical
# Details: 2 nM kallikrein, 80 μM S2302, 30° C., pH 7.8; Ki by Cheng-Prusoff equation; values given as ranges; read-out: Ki
# Experimental: Plasma Kallikrein Activity Assay.
# The effect of compounds of the invention on human plasma kallikrein activity was determined using the chromogenic substrates (DiaPharma Group, Inc., West Chester, Ohio, USA). In these experiments, 2 nM kallikrein (Enzyme Research Laboratories, South Bend, Ind., USA) was incubated with 80 μM S2302 (H-D-Pro-Phe-Arg-p-nitroaniline) in the absence or presence of increasing concentrations of compounds of the invention in a final volume of 200 μL Tris-HCl buffer (200 mM NaCl; mM CaCl2; 50 mM Tris-HCl, pH 7.8).
# Data were analyzed using SigmaPlot software (Systat Software, Inc., San Jose, Calif., USA) (Four Parameter Logistic Curve).
# Sequence of human plasma kallikrein (P03952 whole entry, looked up): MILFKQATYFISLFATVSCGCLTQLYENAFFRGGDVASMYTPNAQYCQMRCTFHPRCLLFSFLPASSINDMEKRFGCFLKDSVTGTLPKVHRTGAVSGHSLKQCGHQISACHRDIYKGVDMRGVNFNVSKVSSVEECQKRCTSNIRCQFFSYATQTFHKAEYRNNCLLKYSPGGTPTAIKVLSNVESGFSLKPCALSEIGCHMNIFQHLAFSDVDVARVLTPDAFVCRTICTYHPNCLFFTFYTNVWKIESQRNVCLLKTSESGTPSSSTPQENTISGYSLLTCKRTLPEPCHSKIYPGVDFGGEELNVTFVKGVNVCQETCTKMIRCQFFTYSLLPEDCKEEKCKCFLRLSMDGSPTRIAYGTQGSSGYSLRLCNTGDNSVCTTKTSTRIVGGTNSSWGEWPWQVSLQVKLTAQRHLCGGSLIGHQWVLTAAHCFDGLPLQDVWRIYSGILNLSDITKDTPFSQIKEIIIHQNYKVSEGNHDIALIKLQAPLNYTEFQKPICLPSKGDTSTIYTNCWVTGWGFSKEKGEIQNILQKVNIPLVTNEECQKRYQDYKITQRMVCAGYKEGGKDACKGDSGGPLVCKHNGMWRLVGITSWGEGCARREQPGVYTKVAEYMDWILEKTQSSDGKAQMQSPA
# Sequence of human plasma kallikrein (P03952 whole entry partner, looked up): as the sequence (P03952 whole entry, looked up) above
row,Compound,Ki [nM]
1,"NCc1cccc(-n2nc(C(F)(F)F)cc2C(=O)Nc2cc(C(NCC3CC3)c3cccnc3)ccc2Cl)c1 (stereo not shown) [96f, 1-(3-(Aminomethyl)phenyl)-N-(2-chloro-5-((cyclopropylmethylamino)(pyridin-3-yl)methyl)phenyl)-3-(trifluoromethyl)-1H-pyrazole-5-carboxamide]",0.1 to 50
2,"NCc1cccc(-n2nc(C(F)(F)F)cc2C(=O)Nc2cc(C(c3ccccc3)N(CC3CC3)CC3CC3)ccc2F)c1 (single isomer, unassigned; (-)) [206d, (−)-1-(3-(aminomethyl)phenyl)-N-(5-((bis(cyclopropylmethyl)amino)(phenyl)methyl)-2-fluorophenyl)-3-(trifluoromethyl)-1H pyrazole-5-carboxamide]",0.1 to 50
3,"NCc1cccc(-n2nc(C(F)(F)F)cc2C(=O)Nc2cc(C(NCC3CC3)c3ccncc3)ccc2F)c1 (stereo not shown) [132f, 1-(3-(aminomethyl)phenyl)-N-(5-(((cyclopropylmethyl)amino)(pyridin-4-yl)methyl)-2-fluorophenyl)-3-(trifluoromethyl)-1H-pyrazole-5-carboxamide]",0.1 to 50
4,"CCNCc1cccc(-n2nc(C(F)(F)F)cc2C(=O)Nc2cc(C(NCC3CC3)c3ccccc3)ccc2F)c1 (single isomer, unassigned; (-)) [270a, (−)-N-(5-((cyclopropylmethylamino)(phenyl)methyl)-2-fluorophenyl)-1-(3-((ethylamino)methyl)phenyl)-3-(trifluoromethyl)-1H-pyrazole-5-carboxamide]",50 to 100
5,"CCc1cccc(C(NCC2CC2)c2cccc(NC(=O)c3cc(C(F)(F)F)nn3-c3cccc(CN)c3)c2)c1 (stereo not shown) [116e, 1-(3-(aminomethyl)phenyl)-N-(3-((cyclopropylmethylamino)(3-ethylphenyl)methyl)phenyl)-3-(trifluoromethyl)-1H-pyrazole-5-carboxamide]",0.1 to 50
6,"Nc1nccc2ccc(-n3nc(C(=O)Nc4cc(C(N)(CCC5CC5)c5ccncc5)ccc4F)cc3C(F)(F)F)cc12 (single isomer, unassigned; (+)) [268g, (+)-N-(5-(1-amino-3-cyclopropyl-1-(pyridin-4-yl)propyl)-2-fluorophenyl)-1-(1-aminoisoquinolin-7-yl)-5-(trifluoromethyl)-1H-pyrazole-3-carboxamide]",50 to 100
7,"CC(C)C(=O)NC(CCC1CC1)(c1cccnc1)c1ccc(F)c(NC(=O)c2cc(C(F)(F)F)nn2-c2cccc(CN)c2)c1 (single isomer, unassigned; (-)) [244j, (−)-1-(3-(aminomethyl)phenyl)-N-(5-(3-cyclopropyl-1-isobutyramido-1-(pyridin-3-yl)propyl)-2-fluorophenyl)-3-(trifluoromethyl)-1H-pyrazole-5-carboxamide]",0.1 to 50
8,"NCc1cccc(-n2nc(C(F)(F)F)cc2C(=O)Nc2cccc(C(O)(CCC3CC3)c3ccccn3)c2)c1 (stereo not shown) [45g, 1-(3-(aminomethyl)phenyl)-N-(3-(3-cyclopropyl-1-hydroxy-1-(pyridin-2-yl)propyl)phenyl)-3-(trifluoromethyl)-1H-pyrazole-5-carboxamide]",0.1 to 50
9,"NCc1cccc(-n2nc(C(F)(F)F)cc2C(=O)Nc2cccc(C(OCC3CCC3)c3ccccc3)c2)c1 (stereo not shown) [75a, 1-(3-(aminomethyl)phenyl)-N-(3-((cyclobutylmethoxy)(phenyl)methyl)phenyl)-3-(trifluoromethyl)-1H-pyrazole-5-carboxamide]",50 to 100
10,"Nc1nccc2ccc(-n3nc(C(F)(F)F)cc3C(=O)Nc3cc(C(CCC4CC4)n4ccc(=O)[nH]c4=O)ccc3F)cc12 (stereo not shown) [269b, 1-(1-aminoisoquinolin-7-yl)-N-(5-(3-cyclopropyl-1-(2,4-dioxo-3,4-dihydropyrimidin-1(2H)-yl)propyl)-2-fluorophenyl)-3-(trifluoromethyl)-1H-pyrazole-5-carboxamide]",0.1 to 50
11,"NCc1cccc(-n2nc(C(F)(F)F)cc2C(=O)Nc2cccc(C(NCC3CC3)c3ccc4ccccc4c3)c2)c1 (stereo not shown) [128g, 1-(3-(aminomethyl)phenyl)-N-(3-((cyclopropylmethylamino)(naphthalen-2-yl)methyl)phenyl)-3-(trifluoromethyl)-1H-pyrazole-5-carboxamide]",0.1 to 50
12,"NCc1cccc(-n2nc(C(F)(F)F)cc2C(=O)Nc2cccc(C(OCC3CC3)c3cccc(N)c3)c2)c1 (single isomer, unassigned; (-)) [64a, (−)-1-(3-(aminomethyl)phenyl)-N-(3-((3-aminophenyl)(cyclopropyl-methoxy)methyl)phenyl)-3-(trifluoromethyl)-1H-pyrazole-5-carboxamide]",0.1 to 50
13,"NCc1cccc(-n2nc(C(F)(F)F)cc2C(=O)Nc2cc(C(N)(CCC3CC3)c3cccc(C(N)=O)c3)ccc2F)c1 (single isomer, unassigned; (-)) [225a, (−)-N-(5-(1-amino-1-(3-carbamoylphenyl)-3-cyclopropylpropyl)-2-fluorophenyl)-1-(3-(aminomethyl)phenyl)-3-(trifluoromethyl)-1H-pyrazole-5-carboxamide]",0.1 to 50
14,"NCc1cccc(-n2nc(C(F)(F)F)cc2C(=O)Nc2cc(C(CCC3CC3)n3ccncc3=O)ccc2F)c1 (stereo not shown) [249b, 1-(3-(aminomethyl)phenyl)-N-(5-(3-cyclopropyl-1-(2-oxopyrazin-1(2H)-yl)propyl)-2-fluorophenyl)-3-(trifluoromethyl)-1H-pyrazole-5-carboxamide]",0.1 to 50
15,"NCc1cccc(-n2nc(C(F)(F)F)cc2C(=O)Nc2cccc(C(O)(CCC3CC3)c3cccnc3)c2)c1 (single isomer, unassigned; (+)) [47h, (+)-1-(3-(aminomethyl)phenyl)-N-(3-(3-cyclopropyl-1-hydroxy-1-(pyridin-3-yl)propyl)phenyl)-3-(trifluoromethyl)-1H-pyrazole-5-carboxamide]",0.1 to 50
16,"CN(C)c1ccc(C(NCC2CC2)c2cccc(NC(=O)c3cc(C(F)(F)F)nn3-c3cccc(CN)c3)c2)c2ccccc12 (stereo not shown) [126g, 2-(3-Aminomethyl-phenyl)-5-trifluoromethyl-2H-pyrazole-3-carboxylic acid {3-[(cyclopropylmethyl-amino)-(4-dimethylamino-naphthalen-1-yl)-methyl]-phenyl}-amide]",0.1 to 50
17,"CCCCC(c1ccccc1)c1cccc(NC(=O)c2cc(C(F)(F)F)nn2-c2cccc(CN)c2)c1 (stereo not shown) [32f, 1-(3-(aminomethyl)phenyl)-N-(3-(1-phenylpentyl)phenyl)-3-(trifluoromethyl)-1H-pyrazole-5-carboxamide]",50 to 100
18,"Nc1nccc2ccc(-n3nc(C(F)(F)F)cc3C(=O)Nc3cc(C(CCC4CC4)n4ccccc4=O)ccc3F)cc12 (stereo not shown) [258g, 1-(1-aminoisoquinolin-7-yl)-N-(5-(3-cyclopropyl-1-(2-oxopyridin-1(2H)-yl)propyl)-2-fluorophenyl)-3-(trifluoromethyl)-1H-pyrazole-5-carboxamide]",0.1 to 50
19,"NCc1cccc(-n2nc(C(F)(F)F)cc2C(=O)Nc2cccc(C(O)(CNC3CC3)c3ccccc3)c2)c1 (stereo not shown) [99g, 1-(3-(aminomethyl)phenyl)-N-(3-(2-(cyclopropylamino)-1-hydroxy-1-phenylethyl)phenyl)-3-(trifluoromethyl)-1H-pyrazole-5-carboxamide]",0.1 to 50
20,"NCc1cccc(-n2nc(C(F)(F)F)cc2C(=O)Nc2cccc(C(NCC3CC3)c3cccc(O)c3)c2)c1 (stereo not shown) [137a, 1-(3-(Aminomethyl)phenyl)-N-(3-((cyclopropylmethylamino)(3-hydroxyphenyl)methyl)phenyl)-3-(trifluoromethyl)-1H-pyrazole-5-carboxamide]",0.1 to 50
21,"NCc1cccc(-n2nc(C(F)(F)F)cc2C(=O)Nc2cccc(C(NCC3CC3)c3ccc(O)c(Br)c3)c2)c1 (stereo not shown) [207j, 1-(3-(Aminomethyl)phenyl)-N-(3-((3-bromo-4-hydroxyphenyl)(cyclopropylmethylamino)methyl)phenyl)-3-(trifluoromethyl)-1H-pyrazole-5-carboxamide]",0.1 to 50
22,"CCOC(c1ccccc1)c1cccc(NC(=O)c2cc(C(F)(F)F)nn2-c2cccc(CN)c2)c1 (stereo not shown) [18g, 1-(3-(aminomethyl)phenyl)-N-(3-(ethoxy(phenyl)methyl)phenyl)-3-(trifluoromethyl)-1H-pyrazole-5-carboxamide]",50 to 100
23,"Nc1nccc2ccc(-n3nc(C(F)(F)F)cc3C(=O)Nc3cc(C(N)(CCC4CC4)c4ccccc4)ccc3F)cc12 (single isomer, unassigned; (+)) [255a, (+)-N-(5-(1-amino-3-cyclopropyl-1-phenylpropyl)-2-fluorophenyl)-1-(1-aminoisoquinolin-7-yl)-3-(trifluoromethyl)-1H-pyrazole-5-carboxamide]",0.1 to 50
24,"NCc1cccc(-n2nc(C(F)(F)F)cc2C(=O)Nc2cc(F)cc(C(OCC3CC3)c3ccccc3)c2)c1 (stereo not shown) [80h, 1-(3-(aminomethyl)phenyl)-N-(3-((cyclopropylmethoxy)(phenyl)methyl)-5-fluorophenyl)-3-(trifluoromethyl)-1H-pyrazole-5-carboxamide]",0.1 to 50
25,"NCc1cccc(-n2nc(C(F)(F)F)cc2C(=O)Nc2cccc(C(NCC3CC3)c3c(F)cccc3F)c2)c1 (stereo not shown) [198f, 1-(3-(aminomethyl)phenyl)-N-(3-(((cyclopropylmethyl)amino)(2,6-difluorophenyl)methyl)phenyl)-3-(trifluoromethyl)-1H-pyrazole-5-carboxamide]",0.1 to 50
26,"NCc1cccc(-n2nc(C(F)(F)F)cc2C(=O)Nc2cccc(C(NCC3CC3)c3cn[nH]c3)c2)c1 (stereo not shown) [84h, 1-(3-(aminomethyl)phenyl)-N-(3-(((cyclopropylmethyl)amino)(1H-pyrazol-4-yl)methyl)phenyl)-3-(trifluoromethyl)-1H-pyrazole-5-carboxamide]",0.1 to 50

# Same assay, conditions: Ki, 2 nM kallikrein, 80 μM S2302, 30° C., pH 7.8; Ki by Cheng-Prusoff equation; values given as ranges
row,Compound,Ki [nM]
1,"NCc1cccc(-n2nc(C(F)(F)F)cc2C(=O)Nc2cccc(C(OCCC3CC3)c3ccccc3)c2)c1 (stereo not shown) [74a, 1-(3-(aminomethyl)phenyl)-N-(3-((2-cyclopropylethoxy)(phenyl)methyl)phenyl)-3-(trifluoromethyl)-1H-pyrazole-5-carboxamide]",0.1 to 50
2,"NCc1cccc(-n2nc(C(F)(F)F)cc2C(=O)Nc2cccc(C(NCC3CC3)c3cc4ccccc4c4ccccc34)c2)c1 (stereo not shown) [125g, 1-(3-(Aminomethyl)phenyl)-N-(3-((cyclopropylmethylamino)(phenanthren-9-yl)methyl)phenyl)-3-(trifluoromethyl)-1H-pyrazole-5-carboxamide]",0.1 to 50
